In one test the test system is sweet taste of glucose. Put plainly: Sweet taste detection threshold of glucose/Pyridinium-Betaine mixtures (triangle test, sensory panel). Format: in vivo. As to conditions: equimolar mixture with glucose; for Threshold decrease: vs glucose in water 50.0 mmol/L. How it is done: • Sensory panel training: […] Sensory analyses were performed in a sensory panel room at 22-25° C. on three different sessions. • Taste thresholds: The taste thresholds of the tastants or mixtures containing basic tastants plus Pyridinium-Betains were determined in a triangle test using Evian® mineral water as the solvent at a defined pH ([…] and H.-D. Belitz, Z. Lebensm. Unters. Forsch. 1975, 159, 65-72). The samples (3 mL) were presented in order of increasing concentrations (serial 1:1 dilutions). The threshold values evaluated in two different sessions were averaged. […] The taste intensities of aqueous (Evian®) solutions containing a basic tastant, such as glucose and MSG, for example, in constant concentrations and the compounds of the general formula (A), for example […], in various concentrations were compared with those of a solution containing the basic tastant only. To achieve this, triangle tests were performed with two glass vials containing the basic tastant in constant concentrations, and one glass vial containing a stepwise 1:1-diluted mixture of basic […]. […] The relative taste strength (taste enhancing factor) of a mixture containing the basic […] was related to the basic tastants glucose, MSG, or other tastants, respectively, as standard substances, and was determined as the ratio of the concentrations c of iso-intensely tasting solutions of the basic tastant, such as glucose (glc), and the mixture containing tastant plus Pyridinium-Betain, […])=[…] This taste enhancing effect is illustrated in examples. The sweet taste thresholds of equimolar mixtures of sweet tasting compounds and various Pyridinium-Betaines were determined by a triangle test using EVIAN® mineral water as the solvent. The sensorial evaluations were performed at different pH values. The equimolar mixture of […] and sucrose at pH 7.0 was evaluated with a 4-fold lower sweet threshold concentration than pure sucrose (Table 1). […] is able to reduce the sweet threshold of glucose 16-fold at pH 7.0 and pH 9.0, whereas at pH 5.0 a gain the sweet taste perception […] (Table 2). […] Using the dipeptide derivative (S)-[…] as a taste-enhancer leads to a 16-fold threshold reduction compared to glucose.

The next test relates to sweet taste of L-alanine. Put plainly: Sweet taste detection threshold of L-alanine/Pyridinium-Betaine mixtures (triangle test, sensory panel). Format: in vivo. As to conditions: mixture with L-alanine; for Threshold decrease: vs L-alanine in water 12.5 mmol/L. How it is done: • Sensory panel training: […] Sensory analyses were performed in a sensory panel room at 22-25° C. on three different sessions. • Taste thresholds: The taste thresholds of the tastants or mixtures containing basic tastants plus Pyridinium-Betains were determined in a triangle test using Evian® mineral water as the solvent at a defined pH ([…] and H.-D. Belitz, Z. Lebensm. Unters. Forsch. 1975, 159, 65-72). The samples (3 mL) were presented in order of increasing concentrations (serial 1:1 dilutions). The threshold values evaluated in two different sessions were averaged. […] The taste intensities of aqueous (Evian®) solutions containing a basic tastant, such as glucose and MSG, for example, in constant concentrations and the compounds of the general formula (A), for example […], in various concentrations were compared with those of a solution containing the basic tastant only. To achieve this, triangle tests were performed with two glass vials containing the basic tastant in constant concentrations, and one glass vial containing a stepwise 1:1-diluted mixture of basic […]. […] The relative taste strength (taste enhancing factor) of a mixture containing the basic […] was related to the basic tastants glucose, MSG, or other tastants, respectively, as standard substances, and was determined as the ratio of the concentrations c of iso-intensely tasting solutions of the basic tastant, such as glucose (glc), and the mixture containing tastant plus Pyridinium-Betain, […])=[…] […] This taste enhancing effect is illustrated in examples. Besides the two carbohydrates, the sweet amino acid L-alanine was also tested with […]. Again, the best impact on sweet taste perception was found for the mixture at pH 9.0, resulting in an 8-fold lower threshold.

The results in this text go back to patent US7175872B2, “Pyridinium-Betain compounds for use as taste modulators” (Nestec S.A., priority 2002, dated 2007).

Structures can show the parent of a compound that is named as a salt.

As to `CC(C(=O)[O-])[n+]1cc(O)ccc1CO` (stereo not shown) [Alapyridaine, N-(1-carboxyethyl)-3-hydroxy-6-hydroxymethyl-pyridinium inner salt], the Sweet detection threshold was determined as 6.0 mmol/kg water in the test with sweet taste of glucose (pH 5.0); 3.0 mmol/kg water with sweet taste of glucose (pH 7.0); 3.0 mmol/kg water with sweet taste of glucose (pH 9.0); 6.0 mmol/kg water with sweet taste of L-alanine (pH 6.0); 3.0 mmol/kg water with sweet taste of L-alanine (pH 7.0); 1.5 mmol/kg water in the test on sweet taste of L-alanine (pH 9.0). Also, the Taste quality result with sweet taste of glucose (pH 5.0) is on record as “sweet/”; with sweet taste of glucose (pH 7.0), “sweet”; with sweet taste of glucose (pH 9.0) it was “sweet”; in the test on sweet taste of L-alanine (pH 6.0), “sweet”; with sweet taste of L-alanine (pH 7.0), “sweet”; in the test with sweet taste of L-alanine (pH 9.0), “sweet”. The Threshold decrease came out at 8.0 in the test with sweet taste of glucose (pH 5.0); 16 in the test on sweet taste of glucose (pH 7.0); 16 with sweet taste of glucose (pH 9.0); 2.0 in the test with sweet taste of L-alanine (pH 6.0); 4 with sweet taste of L-alanine (pH 7.0); 8 in the test on sweet taste of L-alanine (pH 9.0). Besides, the “reduction of the sweet threshold” value in the test on sweet taste of L-alanine (pH 5.0) is listed as “only a slight reduction”.
